Source: PMC8095314 (ChemistryOpen, 2021)
“And” between values parts separate entries of the source, which are not always exact repeats. Equal entries are not always repeated.

Columns and labels:
His64 = test: kinetics; details: cited from earlier work
recombinant human CA XII [1] = biological target: T1, recombinant human CA XII (Homo sapiens, UniProt O43570); format: binding; details: from FTSA Kd
recombinant human CA II = recombinant human CA II (Homo sapiens, UniProt P00918); details: read-out: Kd CA II (FTSA); observed, pH 7.0, 37 °C; cited from earlier work
recombinant human CA XII [2] = biological target: T1, recombinant human CA XII; details: read-out: Kd CA XII (FTSA); observed, pH 7.0, 37 °C; cited from earlier work
chCA XII = chCA XII (Homo sapiens, UniProt P00918, A65S/F130A/I91T/L203N/N67K/V134S); test: Fluorescent thermal shift assay

T1 sequence (O43570 25-354): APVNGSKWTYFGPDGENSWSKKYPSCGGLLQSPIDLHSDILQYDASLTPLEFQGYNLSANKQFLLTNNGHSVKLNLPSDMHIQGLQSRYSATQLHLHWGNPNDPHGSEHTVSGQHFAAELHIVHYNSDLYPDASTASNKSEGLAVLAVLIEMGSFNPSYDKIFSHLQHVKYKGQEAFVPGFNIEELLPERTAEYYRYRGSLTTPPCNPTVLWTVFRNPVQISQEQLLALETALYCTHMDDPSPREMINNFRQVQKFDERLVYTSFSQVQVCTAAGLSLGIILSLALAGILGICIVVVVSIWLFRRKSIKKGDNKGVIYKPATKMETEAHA

| Compound | pKa (His64) | Kd ratio CA XII/CA II (recombinant human CA XII [1]) | Kd (recombinant human CA II) [µM] | Kd (recombinant human CA XII [2]) [µM] | Kd (chCA XII) [µM] |
| --- | --- | --- | --- | --- | --- |
| Carbonic anhydrase XII (CA XII) (Homo sapiens) | 8.0±0.2 and 7.5±0.1 | – | – | – | – |
| NS(=O)(=O)c1ccc2ccccc2c1 [Compound 37, naphthalene‐2‐sulfonamide] | – | 8.2 | 0.77 | 6.3 | 6.7 |
